The record followed here is US9765075B2, “Substituted bridged urea analogs as sirtuin modulators” (GLAXOSMITHKLINE LLC, priority 2013, dated 2017).

Where two headings read alike, the source gives them in different places. A value given as a limit tells only on which side of the number the result lay.

For this experiment, the target named is T1, SIRT1 (Homo sapiens, UniProt Q96EB6).
T1 sequence (Q96EB6 1-747): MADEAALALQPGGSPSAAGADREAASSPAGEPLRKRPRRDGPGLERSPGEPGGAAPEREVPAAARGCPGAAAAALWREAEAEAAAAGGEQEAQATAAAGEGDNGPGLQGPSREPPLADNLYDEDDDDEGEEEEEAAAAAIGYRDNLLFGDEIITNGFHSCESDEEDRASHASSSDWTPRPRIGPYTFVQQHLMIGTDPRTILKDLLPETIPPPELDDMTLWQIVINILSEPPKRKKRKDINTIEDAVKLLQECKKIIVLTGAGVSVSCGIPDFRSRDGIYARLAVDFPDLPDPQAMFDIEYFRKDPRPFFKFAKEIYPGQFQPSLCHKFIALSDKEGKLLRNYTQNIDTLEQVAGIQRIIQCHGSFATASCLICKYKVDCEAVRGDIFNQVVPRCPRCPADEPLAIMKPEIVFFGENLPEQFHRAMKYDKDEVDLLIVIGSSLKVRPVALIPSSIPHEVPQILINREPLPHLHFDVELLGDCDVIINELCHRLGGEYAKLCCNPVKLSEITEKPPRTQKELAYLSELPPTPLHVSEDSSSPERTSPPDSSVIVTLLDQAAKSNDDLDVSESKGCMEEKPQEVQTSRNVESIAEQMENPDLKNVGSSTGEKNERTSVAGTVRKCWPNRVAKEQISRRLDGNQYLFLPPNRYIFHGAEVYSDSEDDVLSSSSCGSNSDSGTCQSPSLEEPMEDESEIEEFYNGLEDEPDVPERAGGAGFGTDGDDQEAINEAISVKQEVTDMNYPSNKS
Nature of the experiment: Trp mass spectrometry assay (SIRT1 activation). The class given is biochemical. As to conditions: for Emax: percent maximum fold activation of SIRT1, read-out: Tryp % Fold Act. The procedure, abridged: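 N-His-tagged SIRT1 (10 nM), expressed in E. coli, was incubated with 0.5 μM Ac-RHKK(Ac)W-NH2 peptide and 120 μM NAD+ for 25 min at 25 °C in HEPES pH 7.5 with […]. The reaction was stopped with formic acid and O-acetyl-ADP-ribose or deacetylated peptide was quantified by mass spectrometry. Results are given as EC1.5 and percent maximal activation relative to DMSO control.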

Setting [1] is: concentration of test compound that results in 150% activation of SIRT1, Trp peptide substrate.
Setting [2] is: Trp mass spectrometry assay, EC1.5 = concentration of test compound that results in 150% activation of SIRT1.
The mark [3] stands for this setting: Trp mass spectrometry assay, EC1.5 = concentration giving 150% activation of SIRT1.

Turning to `Cc1c(-c2ccc3c(n2)N(C(=O)Nc2ccccn2)[C@H]2CCN3C2)cnn1C` [Example 531], under setting [1], the “Tryp AVG EC1.5 (μM)” value is given as “B (EC1.5 1-25 μM)”. The Emax (Trp peptide substrate) was at least 150%.
`Cc1cc(-c2ccc3c(n2)N(C(=O)Nc2cccc(-c4cnco4)c2)[C@H]2CCN3C2)ccn1` [Example 480]: the “Tryp AVG EC1.5 (μM)” value under setting [1] is “A (EC1.5<1 μM)”. Besides, the Emax (Trp peptide substrate) is at least 150%.
For the compound `COc1cc(NC(=O)N2c3nc(-c4cncc(F)c4)ccc3N3CCC2CC3)nc(OC)n1` [Example 578], the “Tryp AVG EC1.5 (μM)” value under setting [1] was “B (EC1.5 1-25 μM)”. Further, where the note is “Trp peptide substrate”, the Emax was at least 150%.
In the case of `COc1cc(NC(=O)N2c3nc(-c4cccc(Cl)c4)ccc3N3CC[C@H]2C3)ncn1` [Example 104], the “Tryp AVG EC1.5 (μM)” value under setting [2] is “B (EC1.5 1-25 μM)”. Further, the Emax (Trp mass spectrometry assay) was at least 150%.
Take `Cn1cc2cc(NC(=O)N3c4nc(-c5cccc(Cl)c5)ccc4N4CC[C@H]3C4)ccc2n1` [Example 118]: the “Tryp AVG EC1.5 (μM)” value under setting [2] was “A (EC1.5<1 μM)”. The Emax (Trp mass spectrometry assay) was at least 150%.
On to `O=C(Nc1ccc(F)cn1)N1c2nc(-c3ccnc(N4CC[C@@H](F)C4)c3)ccc2N2CC[C@H]1C2` [Example 474], for which the “Tryp AVG EC1.5 (μM)” value under setting [1] was “A (EC1.5<1 μM)”. Moreover, the Emax (Trp peptide substrate) was at least 150%.
As to `N#Cc1cccc(-c2ccc3c(n2)N(C(=O)Nc2cnccn2)[C@H]2CCN3C2)c1` [Example 189], the “Tryp AVG EC1.5 (μM)” value under setting [2] is listed as “A (EC1.5<1 μM)”. Also, the Emax (Trp mass spectrometry assay) was at least 150%.
Regarding `COc1cc(NC(=O)N2c3nc(-c4cccc(C(F)(F)F)c4)ccc3N3CC[C@H]2C3)ncn1` [Example 34], for the setting “Trp mass spectrometry assay”, the Emax is at least 150%.
Take `Cc1noc(C)c1-c1ccc2c(n1)N(C(=O)Nc1ccccn1)[C@H]1CCN2C1` [Example 327]: the “Tryp AVG EC1.5 (μM)” value under setting [1] was “C (EC1.5>25 μM)”. In addition, the Emax (Trp peptide substrate) is at least 150%.
The corresponding values for `N#Cc1ccccc1-c1ccc2c(n1)N(C(=O)Nc1ccccn1)[C@H]1CCCN2C1` [Example 449] are “B (EC1.5 1-25 μM)” and at least 150%.
Turning to `O=C(Nc1ccccn1)N1c2nc(-c3ccnc(N4CCC(C(F)(F)F)C4)c3)ccc2N2CC[C@H]1C2` (stereo partly shown) [Example 367], the “Tryp AVG EC1.5 (μM)” value under setting [1] is “A (EC1.5<1 μM)”. For the same compound, the Emax (Trp peptide substrate) was at least 150%.
For the compound `COc1cc(NC(=O)N2c3nc(-c4cncc(C(F)(F)F)c4)ccc3N3CCC[C@H]2C3)ncn1` [Example 394], under setting [1], the “Tryp AVG EC1.5 (μM)” value is listed as “A (EC1.5<1 μM)”. Also, the Emax (Trp peptide substrate) was at least 150%.
As to `CN(C)[C@H]1CCN(c2ccc3c(n2)N(C(=O)Nc2cccnc2)[C@H]2CCN3C2)C1` [Example 242], the “Tryp AVG EC1.5 (μM)” value under setting [1] is “B (EC1.5 1-25 μM)”. For the same compound, for the setting “Trp peptide substrate”, the Emax was at least 150%.
On the same counts, the results for `Cc1nc(NC(=O)N2c3nc(-c4cncc(F)c4)ccc3N3CCC[C@H]2C3)sc1C` [Example 471] are “B (EC1.5 1-25 μM)” and at least 150%.
For `O=C(Nc1cc(-c2cnco2)ccn1)N1c2nc(-c3cccc(C(F)(F)F)c3)ccc2N2CCC1CC2` [Example 595], the “Tryp AVG EC1.5 (μM)” value under setting [1] is listed as “A (EC1.5<1 μM)”. For the same compound, under “Trp peptide substrate”, the Emax was at least 150%.
In the case of `O=C(Nc1ccccn1)N1c2nc(-c3cccc(C(F)(F)F)c3)ccc2N2CCC[C@@H]1C2` [Example 272], the “Tryp AVG EC1.5 (μM)” value under setting [1] was “B (EC1.5 1-25 μM)”. In addition, the Emax (Trp peptide substrate) is at least 150%.
On the same counts, the results for `O=C(Nc1ccc(F)cn1)N1c2nc(-c3cncc(Cl)c3)ccc2N2CC[C@H]1C2` [Example 261] are “A (EC1.5<1 μM)” and at least 150%.
In the case of `O=C(Nc1cccnn1)N1c2nc(-c3cncc(C(F)(F)F)c3)ccc2N2CCC[C@H]1C2` [Example 412], the “Tryp AVG EC1.5 (μM)” value under setting [1] is given as “A (EC1.5<1 μM)”. The Emax (Trp peptide substrate) is at least 150%.
The corresponding values for `Cc1cc(C)nc(NC(=O)N2c3nc(N4CCCC(C(F)(F)F)C4)ccc3N3CCC[C@@H]2C3)c1` (stereo partly shown) [Example 301] are “C (EC1.5>25 μM)” and below 150%.
Regarding `Cc1cncc(NC(=O)N2c3nc(-c4cccc(C(F)(F)F)c4)ccc3N3C[C@@H](O)[C@H]2C3)c1` [Example 670], the “Tryp AVG EC1.5 (μM)” value under setting [3] is reported as “A (EC1.5<1 μM)”. Besides, under “Trp mass spectrometry assay”, the Emax is at least 150%.
For the compound `COc1cc(NC(=O)N2c3nc(-c4ccnc(N5CC[C@@H](F)C5)c4)ccc3N3CC[C@H]2C3)ncn1` [Example 424], the “Tryp AVG EC1.5 (μM)” value under setting [1] is recorded as “B (EC1.5 1-25 μM)”. In addition, under “Trp peptide substrate”, the Emax was at least 150%.
As to `COc1cc(NC(=O)N2c3nc(-c4cccc(C(F)(F)F)c4)ccc3N3CCC2CC3)ncn1` [Example 168], under setting [2], the “Tryp AVG EC1.5 (μM)” value is reported as “A (EC1.5<1 μM)”. The Emax (Trp mass spectrometry assay) was at least 150%.
For the compound `CS(=O)(=O)c1cccc(-c2ccc3c(n2)N(C(=O)Nc2cccc(-c4cnco4)c2)[C@H]2CCN3C2)c1` [Example 710], the “Tryp AVG EC1.5 (μM)” value under setting [3] was “A (EC1.5<1 μM)”. In addition, the Emax (Trp mass spectrometry assay) was at least 150%.
`O=C(NCCCc1cccnc1)N1c2nc(-c3cccc(C(F)(F)F)c3)ccc2N2CC[C@H]1C2` [Example 674]: under setting [3], the “Tryp AVG EC1.5 (μM)” value is “B (EC1.5 1-25 μM)”. Also, the Emax (Trp mass spectrometry assay) was at least 150%.
Turning to `N#Cc1cccc(-c2ccc3c(n2)N(C(=O)Nc2cccc(-c4cnco4)c2)[C@H]2CCN3C2)c1` [Example 178], the “Tryp AVG EC1.5 (μM)” value under setting [2] is “A (EC1.5<1 μM)”. Further, the Emax (Trp mass spectrometry assay) was at least 150%.
On to `CC(C)c1cccc(-c2ccc3c(n2)N(C(=O)Nc2ccccn2)[C@H]2CCN3C2)c1` [Example 330], for which the “Tryp AVG EC1.5 (μM)” value under setting [1] is listed as “A (EC1.5<1 μM)”. Further, the Emax (Trp peptide substrate) is at least 150%.
For `O=C(Nc1ccccn1)N1c2nc(-c3cc(F)cc(F)c3)ccc2N2CC[C@H]1C2` [Example 344], the “Tryp AVG EC1.5 (μM)” value under setting [1] is recorded as “A (EC1.5<1 μM)”. In addition, the Emax (Trp peptide substrate) is at least 150%.
The corresponding values for `Cc1cnc(NC(=O)N2c3nc(N4CCCC(C(F)(F)F)C4)ccc3N3CCC[C@H]2C3)s1` (stereo partly shown) [Example 296] are “B (EC1.5 1-25 μM)” and at least 150%.
As to `O=C(Nc1cccnc1)N1c2nc(-c3cccc(Cl)c3)ccc2N2CCC[C@H]1C2` [Example 407], the “Tryp AVG EC1.5 (μM)” value under setting [1] was “A (EC1.5<1 μM)”. Moreover, for the setting “Trp peptide substrate”, the Emax was at least 150%.
Regarding `O=C(Nc1cccc(-c2cnco2)c1)N1c2nc(N3CCC[C@H](C(F)(F)F)C3)ccc2N2CC[C@H]1C2` [Example 718], under setting [3], the “Tryp AVG EC1.5 (μM)” value is given as “A (EC1.5<1 μM)”. Besides, under “Trp mass spectrometry assay”, the Emax is at least 150%.
In the case of `O=C(Nc1cccnn1)N1c2nc(C3CCCC(C(F)(F)F)C3)ccc2N2CC[C@H]1C2` (stereo partly shown) [Example 143], the “Tryp AVG EC1.5 (μM)” value under setting [2] is on record as “B (EC1.5 1-25 μM)”. Moreover, the Emax (Trp mass spectrometry assay) is at least 150%.
`O=C(Nc1cccnc1)N1c2nc(-c3cccc(C(F)(F)F)c3)ccc2N2CCC1CC2` [Example 485]: under setting [1], the “Tryp AVG EC1.5 (μM)” value was “A (EC1.5<1 μM)”. Moreover, the Emax (Trp peptide substrate) is at least 150%.
With `CN(C)c1ccnc(NC(=O)N2c3nc(N4CCCC(C(F)(F)F)C4)ccc3N3CC[C@H]2C3)n1` (stereo partly shown) [Example 217], the “Tryp AVG EC1.5 (μM)” value under setting [2] is recorded as “B (EC1.5 1-25 μM)”. The Emax (Trp mass spectrometry assay) was at least 150%.
On to `O=C(Nc1ccncc1F)N1c2nc(-c3ccccc3C(F)(F)F)ccc2N2CC[C@H]1C2` [Example 152], for which the “Tryp AVG EC1.5 (μM)” value under setting [2] is “C (EC1.5>25 μM)”. In addition, the Emax (Trp mass spectrometry assay) is at least 150%.
For `Cn1cc(-c2ccc3c(n2)N(C(=O)Nc2cccnc2)[C@H]2CCN3C2)cn1` [Example 395], under setting [1], the “Tryp AVG EC1.5 (μM)” value was “B (EC1.5 1-25 μM)”. In addition, the Emax (Trp peptide substrate) is at least 150%.
For `CCc1cccc(CC)c1NC(=O)N1c2nc(-c3cccc(C(F)(F)F)c3)ccc2N2CC[C@H]1C2` [Example 71], the Emax (Trp mass spectrometry assay) is below 150%.
